The values below come from US12551465B2 (priority 2020, dated 2026).

Like-named read-outs stand apart in the source and are kept apart here. Marks after values point to notes of the source that are not given here.

Assay in series [1]: not given
This is another data set of the same source.

For series [2], the system named is healthy volunteers. Kind of series: Electrocardiogram (QTcF, QRS) after repeated dose in healthy volunteers (Example 2).
Description: (§3) The electrocardiogram is checked after resting in a supine position in a quiet environment (e.g., without distracting factors) for at least 5 minutes. A sticky pad is attached to the body, and the pad has a thin wire connected to a machine that records measurements of the heart and prints a report. Each time an electrocardiogram is performed, the clinical trial staff performs three electrocardiogram recordings. The time between ECG recordings should not exceed 2 minutes, and the total time should not exceed 10 minutes.
(§4) Primary assessment variables were safety, tolerability and side effects, and the clinical test items were 12-electrode electrocardiogram (including corrected QT interval (calculated by Fridericia formula) [QTc(F)]), QT interval, QRS interval, PR interval, and ventricular rate), vital signs (blood pressure, pulse, body temperature, respiration rate), hypersensitivity (determined by ECG recording and vital signs), clinical laboratory assessment (hematology, blood chemistry, urinalysis, etc.), and adverse events (including serious adverse events).
For participants in Cohort 4, electrocardiogram, pharmacodynamic assessment (echocardiography), etc. were performed on one day before administration, the day of administration (day 1), one day after administration (day 2), day 5 and day 6.
For participants in Cohort 5, electrocardiogram, pharmacodynamic assessment (echocardiography), etc. were performed on one day before administration, the day of administration (day 1), and day 5, day 14 and day 15.
For participants in Cohort 6, electrocardiogram, pharmacodynamic assessment (echocardiography), etc. were performed on one day before administration, the day of administration (day 1), and day 5 and day 14.
Series [3] relates to healthy volunteers. Kind of series: Electrocardiogram (QTcF, QRS) after single dose in healthy volunteers (Example 1).
Description: as §3
(§5) Primary assessment variables were safety, tolerability and side effects, and the clinical trial items were 12-electrode electrocardiogram (including corrected QT interval (calculated by Fridericia formula) [QTc(F)]), QT interval, QRS interval, PR interval, and ventricular rate), vital signs (blood pressure, pulse, body temperature, respiration rate), hypersensitivity (determined by ECG recording and vital signs), clinical laboratory assessment (hematology, blood chemistry, urinalysis, etc.), and adverse events (including serious adverse events).
For participants in Cohorts 1 to 3, electrocardiogram, pharmacodynamic assessment (echocardiography), etc. were performed on one day before administration, the day of administration (day 1), and for two days after administration (48 hours, day 2 and day 3).
The test system of series [4] is patients with HOCM. The settings on record: for Mean LVOT gradient at rest, actual measured value / Mean LVOT gradient at rest, decrease rate / Mean LVOT gradient with Valsalva maneuver, actual measured value / Mean LVOT gradient with Valsalva maneuver, decrease rate: drug (6) and placebo (2). The text has this: Echocardiography (heart scanning): In a state in which the patient is lying flat, a transducer is placed on the chest of the patient, and high-frequency sound waves (sound waves higher than those that humans can hear) are delivered into the body towards the heart. As the sound wave passes through other parts of the body, a part of the wave bounces back to the transducer, and the image of the heart and blood flow is interpreted by the ultrasound machine. This is to examine the heart's ability to eject blood, as well as heart abnormalities, including the atria, valves and major blood vessels.
(§1) A total of up to 24 subjects were enrolled in 3 cohorts (8 per cohort). The subjects underwent at least one set of screening, hospital stay, and the end of study (EOS). Based on (1) safety data reviewed by the Safety Review Committee (SRC) and (2) consent to participate, subjects who underwent EOS in one cohort study could participate in another subsequent cohort study after a washout period of at least 7 days after they received the last investigational medicinal product on day 5 of the previous cohort study.
(§2) If subjects participated in another cohort study of Cohort 1 or 2, screening and inclusion/exclusion criteria were re-evaluated after the washout period. […] All subjects in each cohort were reviewed for safety data by the Safety Review Committee (SRC) after EOS before enrollment in the next dose cohort. The maximum duration of the clinical trial was over 15 weeks, including 9 weeks of screening, approximately 3 weeks of hospital stay and 3 weeks of EOS.
In the case of once-a-day administration, the test drug was administered in the morning of each administration day. In the case of twice-a-day administration, the test drug was administered at 12-hour intervals (in the morning and in the evening) on from day 1 to day 4 and administered only in the morning on day 5.
Subjects who meet the following criteria are considered eligible to participate in the clinical trial: • patients with a maximal left ventricular wall thickness of 15 mm or more (13 mm or more for patients with a family history); • patients with a left ventricular outflow tract (LVOT) gradient of 30 mmHg or more at rest, or an LVOT gradient of 50 mmHg or more after provocation (including provocation such as Valsalva maneuver, standing, post-exercise, etc.); or • patients with a left ventricular ejection fraction (LVEF) of 55% or more. Exclusion Criteria
Secondary assessment variables were pharmacokinetics including Cmax, and the left ventricular outflow track (LVOT) gradient and left ventricular ejection fraction (LVEF) by transthoracic echocardiography (TTE), as wells as blood B-natriuretic peptide (BNP) and troponin levels.
In Example 3 above, the left ventricular outflow track (LVOT) gradient), which is an effect indicator, was measured on day 5 of administration.

In series [5] the test system is patients with HOCM. The following applies: Cohort 1 of Example 3, 200 mg once a day for 5 days.
From the text: as §1, §2

Series [6] concerns healthy volunteers. Kind of series: Clinical safety and tolerability, repeated dose, healthy volunteers (Example 2).
From the text: (§6) In this study, a total of 24 subjects were randomized 1:1:1 to three cohorts and subjected to a total of four stages: screening, treatment period 1, drug withdrawal period, and treatment period 2. The ratio between the drug administration group and the non-drug-administration group (placebo) was 6:2.
as §4
Series [7] relates to healthy volunteers. The series is described as follows: Clinical safety and tolerability, single dose, healthy volunteers (Example 1).
From the text: as §6, §5
Where [8] appears, read: Cohort 3 (control): 150 mg oral three times a day, healthy volunteers.
[9] abbreviates: Cohort 3: racemate 150 mg oral three times a day, only S(−)-cibenzoline moiety.
The mark [10] stands for this setting: Cohort 6 (control): 150 mg oral three times a day for 14 days, PK on day 14.
The mark [11] stands for this setting: Cohort 6: racemate 150 mg three times a day for 14 days, day 14, only S(−)-cibenzoline moiety.
Setting [12] is: Cohort 4, 200 mg once a day, Day 5, 1.5 hr after administration.
The mark [13] stands for this setting: Cohort 4, 200 mg once a day, Day 5, 3 hr after administration.
The mark [14] stands for this setting: Cohort 4, 200 mg once a day, Day 5, 8 hr after administration.
[15] abbreviates: Cohort 4, 200 mg once a day, Day 5 before administration.
The mark [16] stands for this setting: Cohort 5, 300 mg once a day, Day 14, 1.5 hr after administration.
Where [17] appears, read: Cohort 5, 300 mg once a day, Day 14, 3 hr after administration.
[18] abbreviates: Cohort 5, 300 mg once a day, Day 14, 8 hr after administration.
Where [19] appears, read: Cohort 5, 300 mg once a day, Day 14 before administration.
Where [20] appears, read: Cohort 1, 200 mg single dose, Day 1, 1.5 hr after administration.
[21] abbreviates: Cohort 1, 200 mg single dose, Day 1, 3 hr after administration.
Setting [22] is: Cohort 1, 200 mg single dose, Day 1, 8 hr after administration.
The mark [23] stands for this setting: Cohort 1, 200 mg single dose, Day 1 before administration (baseline).
[24] abbreviates: Cohort 2, 300 mg single dose, Day 1, 1.5 hr after administration.
Where [25] appears, read: Cohort 2, 300 mg single dose, Day 1, 3 hr after administration.
Setting [26] is: Cohort 2, 300 mg single dose, Day 1, 8 hr after administration.
Where [27] appears, read: Cohort 2, 300 mg single dose, Day 1 before administration (baseline).
Where [28] appears, read: HOCM Cohort 1, 200 mg once a day, before administration (day 5), before unblinding: drug (6) and placebo (2).
The mark [29] stands for this setting: HOCM Cohort 1, 200 mg once a day, day 5, 2.5 hours after administration.
[30] abbreviates: HOCM Cohort 1, 200 mg once a day, day 5, 6 hours after administration.

With `O=C(O)CCC(=O)O.c1ccc(C2(c3ccccc3)CC2C2=NCCN2)cc1` (racemic) [racemic cibenzoline succinate], under setting [8], the AUC was 7540.4 ng·h/mL, the highest concentration (Cmax) stood at 367.4 ng/mL and the time of peak concentration (Tmax) was determined as 1.7 h. Under setting [9], the “AUC (extract of only S(−)-cibenzoline moiety)” value is “(3610.3) ng · hr/mL”, the “Cmax (extract of only S(−)-cibenzoline moiety)” value is given as “(193.2) ng/mL” and the “Tmax (extract of only S(−)-cibenzoline moiety)” value is given as “(1.7) h”. Also, in series [1] (setting [10]), the Cmax came out at 608.1 ng/mL and the Tmax came to 1.3 h. In addition, the “AUC (extract of only S(−)-cibenzoline moiety)” value in series [1] (Cohort 6, day 14, only S(−)-cibenzoline moiety, simulation: 8-hour PK data multiplied by 3) is given as “(4732.2)* ng · hr/mL”. Besides, in series [1] (Cohort 6: 150 mg three times a day for 14 days, simulation: 8-hour day 14 PK data multiplied by 3), the exposure (AUC) is reported as 8876.4* ng · hr/mL. In series [1] (setting [11]), the “Cmax (extract of only S(−)-cibenzoline moiety)” value was “(334.2) ng/mL” and the “Tmax (extract of only S(−)-cibenzoline moiety)” value is on record as “(1.0) h”.
In the case of `c1ccc(C2(c3ccccc3)C[C@@H]2C2=NCCN2)cc1` [S(−)-cibenzoline succinate], the QRS in series [2] (setting [12]) is 100 ms; in series [2] (setting [13]) it was 102 ms; in series [2] (setting [14]), 96 ms; in series [2] (setting [15]), 92 ms; in series [2] (setting [16]), 124 ms; in series [2] (setting [17]) it was 130 ms. Further, the QRS in series [2] (setting [18]) is 110 ms; in series [2] (setting [19]), 106 ms; in series [3] (setting [20]) it was 102 ms; in series [3] (setting [21]) it was 107 ms; in series [3] (setting [22]), 99 ms; in series [3] (setting [23]), 92 ms. Further, the QRS was determined as 107 ms in series [3] (setting [24]), 116 ms in series [3] (setting [25]), 107 ms in series [3] (setting [26]) and 101 ms in series [3] (setting [27]). For the same compound, the QTcF is recorded as 417 ms in series [2] (setting [12]); 433 ms in series [2] (setting [13]); 417 ms in series [2] (setting [14]); 399 ms in series [2] (setting [15]); 435 ms in series [2] (setting [16]); 444 ms in series [2] (setting [17]). Besides, the QTcF in series [2] (setting [18]) came to 427 ms; in series [2] (setting [19]) it was 404 ms; in series [3] (setting [20]), 412 ms; in series [3] (setting [21]), 426 ms; in series [3] (setting [22]), 408 ms; in series [3] (setting [23]), 406 ms. The QTcF is listed as 419 ms in series [3] (setting [24]), 429 ms in series [3] (setting [25]), 415 ms in series [3] (setting [26]) and 411 ms in series [3] (setting [27]). Also, the “Mean LVOT gradient at rest” value in series [4] (setting [28]) was 90.18 mmHg. Moreover, the “Mean LVOT gradient with Valsalva maneuver” value in series [4] (setting [28]) is 128.50 mmHg. Also, the entries for the “Mean LVOT gradient at rest, actual measured value” in series [4] (setting [29]) and in series [4] (setting [30]) were 77.09 mmHg and 88.07 mmHg, respectively. In addition, the “Mean LVOT gradient at rest, decrease rate” value in series [4] (setting [29]) is given as 15%; in series [4] (setting [30]) it was 2%. Further, the results for the “Mean LVOT gradient with Valsalva maneuver, actual measured value” in series [4] (setting [29]) and in series [4] (setting [30]) were 98.22 mmHg and 126.52 mmHg, respectively. For the same compound, the “Mean LVOT gradient with Valsalva maneuver, decrease rate” value came out at 24% in series [4] (setting [29]) and 2% in series [4] (setting [30]). Besides, the drug-related adverse event result in series [5] was “no drug-related adverse event occurred”.
Regarding `c1ccc(C2(c3ccccc3)C[C@@H]2C2=NCCN2)cc1` [S(−)-cibenzoline, S-2-(2,2-diphenylcyclopropyl)-4,5-dihydro-1H-imidazole], the safety and tolerability entry in series [6] (200 mg or 300 mg once a day, repeated dose, healthy volunteers) is “safe and tolerable”; in series [7] (200 mg or 300 mg once a day, single dose, healthy volunteers), “safe and tolerable”. In addition, the serious side effects result in series [6] (Cohorts 4 and 5 (200 mg once a day 5 days; 300 mg once a day 14 days) compared to Cohort 6) is “serious side effects did not occur”; in series [7] (Cohorts 1 and 2 (200 mg or 300 mg once a day, single dose) compared to Cohort 3, healthy volunteers), “no serious side effects occurred”. Also, the “decrease of left ventricular outflow tract (LVOT) gradient after drug administration” value in series [4] (HOCM patients, Example 3) is “about 10 mmHg”.
